Experimental data published in patent US20170190671A1, “BIS(ARYL)CATECHOL DERIVATIVES AS HERBICIDES” (E I DU PONT DE NEMOURS AND COMPANY, priority 2014, published 2017).

Columns and labels:
Test in all cases: Test C postemergence
Assay type in all cases: in vivo
[1] = system: Italian ryegrass (Lolium multiflorum); conditions: Lolium multiflorum, post-emergence, 336 h, Postemergence, scale 0 to 100, read-out: Plant response rating, Ryegrass, Italian
Method in brief: (§1)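 Seeded loam-sand soil (preemergence) or young potted plants of 2-18 cm (postemergence) received test chemical formulated with surfactant in a non-phytotoxic solvent. Pots were kept in the greenhouse for 13-15 days before a visual 0-100 control rating relative to controls.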

[2] = system: barnyardgrass (Echinochloa crus-galli); conditions: Echinochloa crus-galli, post-emergence, Postemergence, scale 0 to 100, read-out: Plant response rating, Barnyardgrass
Method in brief: as §1

corn (Zea mays) = conditions: Zea mays, post-emergence, 336 h, Postemergence, scale 0 to 100
Method in brief: as §1

[3] = system: galium (catchweed bedstraw, Galium aparine); conditions: Galium, post-emergence, 336 h, Postemergence, scale 0 to 100, read-out: Plant response rating, Galium
Method in brief: as §1

[4] = system: johnsongrass (Sorghum halepense); conditions: Sorghum halepense, post-emergence, 336 h, Postemergence, scale 0 to 100, read-out: Plant response rating, Johnsongrass
Method in brief: as §1

kochia (Kochia scoparia) = conditions: Bassia scoparia, post-emergence, Postemergence, scale 0 to 100, read-out: Plant response rating, Kochia
Method in brief: as §1

[5] = system: large (Lg) crabgrass (Digitaria sanguinalis); conditions: Digitaria sanguinalis, post-emergence, 336 h, Postemergence, scale 0 to 100, read-out: Plant response rating, Crabgrass, Large
Method in brief: as §1

[6] = system: morningglory (Ipomoea coccinea); conditions: Ipomoea, post-emergence, 336 h, Postemergence, scale 0 to 100, read-out: Plant response rating, Morningglory
Method in brief: as §1

[7] = system: oilseed rape (Brassica napus); conditions: Brassica napus, post-emergence, Postemergence, scale 0 to 100, read-out: Plant response rating, Oilseed Rape
Method in brief: as §1

[8] = system: pigweed (Amaranthus retroflexus); conditions: Amaranthus retroflexus, post-emergence, 336 h, Postemergence, scale 0 to 100, read-out: Plant response rating, Pigweed
Method in brief: as §1

[9] = system: ragweed (common ragweed, Ambrosia elatior); conditions: Ambrosia artemisiifolia, post-emergence, 336 h, Postemergence, scale 0 to 100, read-out: Plant response rating, Ragweed
Method in brief: as §1

soybean (Glycine max) = conditions: Glycine max, post-emergence, Postemergence, scale 0 to 100, read-out: Plant response rating, Soybean
Method in brief: as §1

[10] = system: waterhemp (common waterhemp, Amaranthus rudis); conditions: Amaranthus tuberculatus, post-emergence, Postemergence, scale 0 to 100, read-out: Plant response rating, Waterhemp
Method in brief: as §1

wild oat (Avena fatua) = conditions: Avena fatua, post-emergence, Postemergence, scale 0 to 100, read-out: Plant response rating, Oat, Wild
Method in brief: as §1

[11] = system: winter wheat (Triticum aestivum); conditions: Triticum aestivum, post-emergence, 336 h, Postemergence, scale 0 to 100, read-out: Plant response rating, Wheat
Method in brief: as §1

Which results are given for `Fc1cccc(Oc2ncc(Cl)cn2)c1Oc1ncc(Cl)cn1` [Compound 21, 2,2′-[[3-fluoro-1,2-phenylene]bis(oxy)]bis[5-chloropyrimidine]]?
pest or weed control at 31 g/ha ([1]; 31 g ai/ha): 0%; pest or weed control at 62 g/ha ([1]; 62 g ai/ha): 0%; pest or weed control at 125 g/ha ([1]; 125 g ai/ha): 25%; pest or weed control at 16 g/ha ([2]; 16 g ai/ha): 5%; pest or weed control at 31 g/ha ([2]; 31 g ai/ha): 5%; pest or weed control at 62 g/ha ([2]; 62 g ai/ha): 5%; pest or weed control at 125 g/ha ([2]; 125 g ai/ha): 5%; Corn plant response rating (crop injury, 0 = no effect, 100 = complete kill) at 16 g/ha (corn (Zea mays); 16 g ai/ha): 0%; Corn plant response rating (crop injury, 0 = no effect, 100 = complete kill) at 31 g/ha (corn (Zea mays); 31 g ai/ha): 5%; Corn plant response rating (crop injury, 0 = no effect, 100 = complete kill) at 62 g/ha (corn (Zea mays); 62 g ai/ha): 5%; Corn plant response rating (crop injury, 0 = no effect, 100 = complete kill) at 125 g/ha (corn (Zea mays); 125 g ai/ha): 5%; pest or weed control at 16 g/ha ([3]; 16 g ai/ha): 70%; pest or weed control at 31 g/ha ([3]; 31 g ai/ha): 80%; pest or weed control at 62 g/ha ([3]; 62 g ai/ha): 85%; pest or weed control at 125 g/ha ([3]; 125 g ai/ha): 90%; pest or weed control at 16 g/ha ([4]; 16 g ai/ha): 5%; pest or weed control at 31 g/ha ([4]; 31 g ai/ha): 5%; pest or weed control at 62 g/ha ([4]; 62 g ai/ha): 5%; pest or weed control at 125 g/ha ([4]; 125 g ai/ha): 5%; pest or weed control at 16 g/ha (kochia (Kochia scoparia); 16 g ai/ha): 85%; pest or weed control at 31 g/ha (kochia (Kochia scoparia); 31 g ai/ha): 90%; pest or weed control at 62 g/ha (kochia (Kochia scoparia); 62 g ai/ha): 90%; pest or weed control at 125 g/ha (kochia (Kochia scoparia); 125 g ai/ha): 98%; pest or weed control at 16 g/ha ([5]; 16 g ai/ha): 5%; pest or weed control at 31 g/ha ([5]; 31 g ai/ha): 5%; pest or weed control at 62 g/ha ([5]; 62 g ai/ha): 5%; pest or weed control at 125 g/ha ([5]; 125 g ai/ha): 15%; pest or weed control at 31 g/ha ([6]; 31 g ai/ha): 65%; pest or weed control at 62 g/ha ([6]; 62 g ai/ha): 70%; pest or weed control at 125 g/ha ([6]; 125 g ai/ha): 98%; plant injury at 31 g/ha ([7]; 31 g ai/ha): 55%; plant injury at 62 g/ha ([7]; 62 g ai/ha): 60%; plant injury at 125 g/ha ([7]; 125 g ai/ha): 80%; pest or weed control at 31 g/ha ([8]; 31 g ai/ha): 75%; pest or weed control at 62 g/ha ([8]; 62 g ai/ha): 85%; pest or weed control at 125 g/ha ([8]; 125 g ai/ha): 95%; pest or weed control at 31 g/ha ([9]; 31 g ai/ha): 30%; pest or weed control at 62 g/ha ([9]; 62 g ai/ha): 60%; pest or weed control at 125 g/ha ([9]; 125 g ai/ha): 95%; plant injury at 31 g/ha (soybean (Glycine max); 31 g ai/ha): 65%; plant injury at 62 g/ha (soybean (Glycine max); 62 g ai/ha): 95%; plant injury at 125 g/ha (soybean (Glycine max); 125 g ai/ha): 95%; pest or weed control at 31 g/ha ([10]; 31 g ai/ha): 60%; pest or weed control at 62 g/ha ([10]; 62 g ai/ha): 50%; pest or weed control at 125 g/ha ([10]; 125 g ai/ha): 65%; pest or weed control at 31 g/ha (wild oat (Avena fatua); 31 g ai/ha): 0%; pest or weed control at 62 g/ha (wild oat (Avena fatua); 62 g ai/ha): 0%; pest or weed control at 125 g/ha (wild oat (Avena fatua); 125 g ai/ha): 40%; plant injury at 31 g/ha ([11]; 31 g ai/ha): 0%; plant injury at 62 g/ha ([11]; 62 g ai/ha): 0%; plant injury at 125 g/ha ([11]; 125 g ai/ha): 5%
